From patent US8231861B2, “Pancreatitis” (priority 2003, dated 2012)

Columns and labels:
[1] = system: wild type and TLR-4 knock out mice; assay: Arginine-induced acute pancreatitis in wild type and TLR-4 knock out mice; assay type: in vivo; details: for pancreatitis outcome (in words): arginine 800 mg/100 g i.p. in two halves, evaluated three days later; for MPO activity in pancreas: after arginine i.p., FIG. 10
Procedure: To evaluate the effect of the absence of TLR4 in another model of pancreatitis, a new mouse model was created. […] See, e.g., Tani et al., Dig. Dis. Sci. 35, 367-374 (1990). Briefly, pancreatitis was induced in wild type and TLR-4 knock out mice by injecting (i.p.) arginine at a dose of 800 mg/100 g body weight. This dose of arginine was divided in two parts, one half injected at the beginning of the experiment and the other half injected one hour later. Three days later mice were sacrificed and the parameters relating to the severity of pancreatitis were evaluated. Analysis was performed substantially as described above.

[2] = system: wild type and TLR4−/− transgenic mice; details: mouse, in vivo, ip
Procedure: Studies were performed on wild type and TLR4−/− transgenic mice weighing about 25-30 grams. Animals were housed in cages under standard conditions at room temperature with a twelve-hour light and dark cycle. Food and drinking water were available ad libitum. Secretagogue-induced pancreatitis was elicited by the hourly (twelve times) intraperitoneal injection of caerulein (50 μg/kg). […] One hour after the final caerulein or saline injection, animals were sacrificed by CO2 asphyxia, and tissue and blood samples were rapidly prepared for study. Harvested blood was allowed to clot and then centrifuged, and serum was obtained for measurement of amylase. […]
Tissue myeloperoxidase (MPO) activity was used as a marker for the sequestration of neutrophils within the pancreas by quantitating photometrically using 3,3′,5,5′-tetramethylbenzidine as a substrate. Pancreatic edema was quantitated by measuring tissue water content and expressing it as a percentage of tissue wet weight. Serum amylase activity was quantitated as described in Singh et al., J. Clin. Invest., 108:1387-1395 (2001). The extent of pancreatic acinar cell necrosis was quantitated morphometrically by an observer who was not aware of the sample identity. […] Ten randomly chosen microscopic fields (×125) were examined for each tissue sample, and the extent of acinar cell injury/necrosis was expressed as a percentage of total acinar tissue. […]

Row | Compound | pancreatitis outcome (in words) ([1]; TLR4 knock out mice) | MPO activity in pancreas ([1]; TLR4−/− mice) | reduction of serum amylase activity in TLR4−/− mice as compared to wild type mice ([1]; after administration of arginine i.p., FIG. 9) | pancreatitis outcome (in words) ([1]; normal (wild type) mice) | MPO activity in pancreas ([1]; wild type mice) | reduction of serum amylase activity in TLR4−/− mice as compared to wild type mice [2]
1 | N=C(N)NCCC[C@H](N)C(=O)O [arginine] | significantly milder pancreatitis | 6.8±6.2 | more than 2.5 fold | pancreatitis that was more severe than that observed with caerulein administration | 472±320 | –
2 | caerulein | – | – | – | – | – | more than 1.6 fold
